Target: HIV-1 PR (Human immunodeficiency virus type 1 group M subtype B, UniProt P04585)
Assay: HIV-protease inhibitory activity assay (FRET peptide substrate)
Assay type: biochemical
Details: Test Example 1
Outline: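 HIV-1 PR (0.83 ng) preincubated with compounds 20 min at room temperature in 0.1 mol/L NaAc, 0.5 mol/L NaCl, 1 mmol/L EDTA, 1 mmol/L DTT, 0.05% Tween 20, pH 4.8. Cleavage of HiLyte Fluor 488/QXL 520 FRET peptide (2 μmol/L) read after 60 minutes at 485/535 nm; IC50 from four-parameter logistic fit.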

SMILES: CC(C)CN(CC(O)C(Cc1ccc(OCc2ccc3ccccc3c2C(N)=O)cc1)NC(=O)OC1COC2(C)OCCC12)S(=O)(=O)c1ccc2ncsc2c1 (centres unmarked) [Compound I-162]
- IC50: 0.96 nM

SMILES: COC(=O)c1ccc(CNc2ccc(CC(NC(=O)OC3COC4(C)OCCC34)C(O)CN(CC(C)C)S(=O)(=O)c3ccc(OC)cc3)cc2)c(-c2sc3c(c2C(=O)O)CC(C)(C)CC3)c1 (centres unmarked) [Compound I-408]
- IC50: 1.8 nM

SMILES: COc1ccc(S(=O)(=O)N(CC(C)C)CC(O)C(Cc2ccc(NCc3ccccc3-n3nc4c(c3C(=O)O)CC3(CCCC3)CC4)cc2)NC(=O)OC2COC3(C)OCCC23)cc1 (centres unmarked) [Compound I-38]
- IC50: 3.85 nM

SMILES: COc1ccc(S(=O)(=O)N(CC(C)C)CC(O)C(Cc2ccc(OCC3CCCN3c3ccccc3-c3sc4c(c3C(=O)O)CC(C)(C)CC4)cc2)NC(=O)OC2COC3(C)OCCC23)cc1 (centres unmarked) [Compound I-95]
- IC50: 2.09 nM

SMILES: COc1ccc(S(=O)(=O)N(CC(C)C)CC(O)C(Cc2ccc(NCc3ccccc3NC(=O)Nc3sc4c(c3C(=O)O)CC(C)(C)CC4)cc2)NC(=O)OC2COC3(C)OCCC23)cc1 (centres unmarked) [Compound I-779]
- IC50: 2.74 nM

SMILES: COc1ccc(S(=O)(=O)N(CC(C)C)CC(O)C(Cc2ccc(N3Cc4ccc(-c5sc6c(c5C(=O)O)CC(C)(C)CC6)cc4C3)cc2)NC(=O)OC2COC3(C)OCCC23)cc1 (centres unmarked) [Compound I-222]
- IC50: 2.9 nM

SMILES: COc1ccc(S(=O)(=O)N(CC(C)C)CC(O)C(Cc2ccc(NCc3cc(O)cc(-c4sc5c(c4C(=O)O)CC(C)(C)CC5)c3)cc2)NC(=O)OC2COC3(C)OCCC23)cc1 (centres unmarked) [Compound I-562]
- IC50: 1.98 nM

SMILES: COc1ccc(S(=O)(=O)N(CC(C)C)CC(O)C(Cc2ccc(NCc3ccccc3-c3ccc4c(c3)cc(C(=O)O)n4C)cc2)NC(=O)OC2COC3(C)OCCC23)cc1 (centres unmarked) [Compound I-899]
- IC50: 1.46 nM

SMILES: COc1ccc(S(=O)(=O)N(CC(C)C)CC(O)C(Cc2ccc(N(C)C3CCc4c(-c5sc6c(c5C(=O)O)CC(C)(C)CC6)cccc43)cc2)NC(=O)OC2COC3(C)OCCC23)cc1 (centres unmarked) [Compound I-710]
- IC50: 4.26 nM

SMILES: COc1ccc(S(=O)(=O)N(CC(C)C)CC(O)C(Cc2ccc(NC3c4ccccc4C(=O)N3c3sc4c(c3C(=O)O)CC(C)(C)CC4)cc2)NC(=O)OC2COC3(C)OCCC23)cc1 (centres unmarked) [Compound I-536]
- IC50: 2.1 nM

SMILES: COc1ccc(S(=O)(=O)N(CC(C)C)CC(O)C(Cc2ccc(N3CC4CN(c5ccc(C#N)cc5-c5sc6c(c5C(=O)O)CC(C)(C)CC6)CC4C3)cc2)NC(=O)OC2COC3(C)OCCC23)cc1 (centres unmarked) [Compound I-233]
- IC50: 6.22 nM

SMILES: CC(C)CN(CC(O)C(Cc1ccc(OCc2ccccc2-c2ccc3c(c2)C(=O)C(c2ccc(F)cc2)C3=O)cc1)NC(=O)OC1COC2(C)OCCC12)S(=O)(=O)c1ccc2c(c1)OCO2 (centres unmarked) [Compound I-174]
- IC50: 2.08 nM

SMILES: COc1ccc(S(=O)(=O)N(CC(C)C)CC(O)C(Cc2ccc(N(C)Cc3cc(OC)ccc3C(=O)Nc3sc4c(c3C(=O)O)CC(C)(C)CC4)cc2)NC(=O)OC2COC3(C)OCCC23)cc1 (centres unmarked) [Compound I-762]
- IC50: 6.23 nM

SMILES: COc1ccc(S(=O)(=O)N(CC(C)C)CC(O)C(Cc2ccc(OCc3cccc(OC)c3-c3sc4c(c3C(=O)O)CC(C)(C)CC4)cc2)NC(=O)OC2COC3(C)OCCC23)cc1 (centres unmarked) [Compound I-186]
- IC50: 2.14 nM

SMILES: COc1ccc(S(=O)(=O)N(CC(C)C)CC(O)C(Cc2ccc(OCc3ccc4sc(-c5ccc(F)cc5)c(C(=O)O)c4c3)cc2)NC(=O)OC2COC3OCCC23)cc1 (centres unmarked) [Compound I-819]
- IC50: 0.72 nM

SMILES: COc1ccc(S(=O)(=O)N(CC(C)C)CC(O)C(Cc2ccc(NCc3ccccc3-c3ccc4cc(C(=O)O)[nH]c4c3)cc2)NC(=O)OC2COC3(C)OCCC23)cc1 (centres unmarked) [Compound I-503]
- IC50: 1.68 nM

SMILES: COc1ccc(S(=O)(=O)N(CC(C)C)CC(O)C(Cc2ccc(N(C)CC3CCCCC3C(=O)Nc3sc4c(c3C(=O)O)CC(C)(C)CC4)cc2)NC(=O)OC2COC3(C)OCCC23)cc1 (centres unmarked) [Compound I-629]
- IC50: 2.35 nM

SMILES: COc1ccc(S(=O)(=O)N(CC(C)C)CC(O)C(Cc2ccc(N3CCc4c(cccc4-c4sc5c(c4C(=O)O)CC(C)(C)CC5)C3)cc2)NC(=O)OC2COC3(C)OCCC23)cc1 (centres unmarked) [Compound I-226]
- IC50: 4.48 nM

SMILES: COc1ccc(S(=O)(=O)N(CC(C)C)CC(O)C(Cc2ccc(N(C)C(=O)Nc3sc4c(c3C(=O)O)CC(C)(C)CC4)cc2)NC(=O)OC2COC3(C)OCCC23)cc1 (centres unmarked) [Compound I-220]
- IC50: 2.08 nM

SMILES: COc1ccc(S(=O)(=O)N(CC(C)C)CC(O)C(Cc2ccc(OCCNC(=O)c3cc(C)cc(C)c3O)cc2)NC(=O)OC2COC3(C)OCCC23)cc1 (centres unmarked) [Compound I-171]
- IC50: 0.94 nM

SMILES: CC(C)CN(CC(O)C(Cc1ccc(OCc2ccc(-c3ccccc3)cc2C(=O)N(C)C)cc1)NC(=O)OC1COC2(C)OCCC12)S(=O)(=O)c1ccc2ncsc2c1 (centres unmarked) [Compound I-161]
- IC50: 0.94 nM

SMILES: COc1ccc(S(=O)(=O)N(CC(C)C)CC(O)C(Cc2ccc(N3CCC(Oc4ccccc4C(=O)Nc4sc5c(c4C(=O)O)CC(C)(C)CC5)C3)cc2)NC(=O)OC2COC3(C)OCCC23)cc1 (centres unmarked) [Compound I-595]
- IC50: 2.17 nM

SMILES: COc1ccc(S(=O)(=O)N(CC(C)C)CC(O)C(Cc2ccc(COC3CCCN3c3ccccc3-c3sc4c(c3C(=O)O)CC(C)(C)CC4)cc2)NC(=O)OC2COC3(C)OCCC23)cc1 (centres unmarked) [Compound I-103]
- IC50: 3.75 nM

SMILES: COc1ccc(S(=O)(=O)N(CC(C)C)CC(O)C(Cc2ccc(OC3CCN(c4ncccc4-c4sc5c(c4C(=O)O)CC(C)(C)CC5)C3)cc2)NC(=O)OC2COC3(C)OCCC23)cc1 (centres unmarked) [Compound I-355]
- IC50: 2.35 nM

SMILES: COc1ccc(S(=O)(=O)N(CC(C)C)CC(O)C(Cc2ccc(N(C)Cc3ccc(Cl)cc3C(=O)Nc3sc4c(c3C(=O)O)CC(C)(C)CC4)cc2)NC(=O)OC2COC3(C)OCCC23)cc1 (centres unmarked) [Compound I-659]
- IC50: 9.51 nM

SMILES: COc1ccc(S(=O)(=O)N(CC(C)C)CC(O)C(Cc2ccc(NCc3cc(OC)ccc3C(=O)Nc3sc4c(c3C(=O)O)CC(C)(C)CC4)cc2)NC(=O)OC2COC3(C)OCCC23)cc1 (centres unmarked) [Compound I-732]
- IC50: 3.26 nM

SMILES: COc1ccc(S(=O)(=O)N(CC(C)C)CC(O)C(Cc2ccc(N3C(=O)c4ccc(-c5sc6c(c5C(=O)O)CC(C)(C)CC6)cc4C3=O)cc2)NC(=O)OC2COC3(C)OCCC23)cc1 (centres unmarked) [Compound I-621]
- IC50: 1.84 nM

SMILES: COc1ccc(S(=O)(=O)N(CC(C)C)CC(O)C(Cc2ccc(OC3CC(N(C)c4ccccc4-c4sc5c(c4C(=O)O)CC(C)(C)CC5)C3)cc2)NC(=O)OC2COC3(C)OCCC23)cc1 (centres unmarked) [Compound I-364]
- IC50: 5.39 nM

SMILES: CC1(C)CCc2sc(-c3ccc(CCCN(CC(O)C(Cc4ccccc4)NC(=O)OC4COC5(C)OCCC45)S(=O)(=O)c4ccc5ncsc5c4)cc3)c(C(=O)O)c2C1 (centres unmarked) [Compound I-164]
- IC50: 2.07 nM

SMILES: COc1ccc(S(=O)(=O)N(CC(C)C)CC(O)C(Cc2ccc(OCc3ncsc3-c3sc4c(c3C(=O)O)CC(C)(C)CC4)cc2)NC(=O)OC2COC3(C)OCCC23)cc1 (centres unmarked) [Compound I-89]
- IC50: 1.11 nM

SMILES: CC(C)CN(CC(O)C(Cc1ccc(OCCOc2ccc(-c3ccc(F)cc3F)cc2C(=O)O)cc1)NC(=O)OC1COC2OCCC12)S(=O)(=O)c1ccc2ncsc2c1 (centres unmarked) [Compound I-814]
- IC50: 0.75 nM

SMILES: COc1ccc(S(=O)(=O)N(CC(C)C)CC(O)C(Cc2ccc(NCc3ccc(C(=O)Nc4sc5c(c4C(=O)O)CC(C)(C)CC5)s3)cc2)NC(=O)OC2COC3(C)OCCC23)cc1 (centres unmarked) [Compound I-441]
- IC50: 2.61 nM

SMILES: COc1ccc(S(=O)(=O)N(CC(C)C)CC(O)C(Cc2ccc(NCc3ccccc3OCC(=O)O)cc2)NC(=O)OC2COC3(C)OCCC23)cc1 (centres unmarked) [Compound I-315]
- IC50: 1.98 nM

SMILES: CC(C)CN(C[C@@H](O)[C@H](Cc1ccccc1)NC(=O)O[C@H]1CO[C@@]2(C)OCC[C@@H]12)S(=O)(=O)c1ccc2nc(NCc3sc4c(c3C(=O)O)CC(C)(C)CC4)sc2c1 [Compound I-26]
- IC50: 2.01 nM

SMILES: CCCCCCCCCCCCCC(=O)Nc1ccc(CN(C)c2ccc(C[C@H](NC(=O)OC3CO[C@@]4(C)OCC[C@@H]34)[C@H](O)CN(CC(C)C)S(=O)(=O)c3ccc(OC)cc3)cc2)c(-c2sc3c(c2C(=O)O)CC(C)(C)CC3)c1 (some centres unmarked) [Compound I-910]
- IC50: 7.84 nM

SMILES: COc1ccc(S(=O)(=O)N(CC(C)C)CC(O)C(Cc2ccc(N(C)Cc3nc(N4CCCC4)sc3-c3ccc(-c4sc5c(c4C(=O)O)CC(C)(C)CC5)cc3)cc2)NC(=O)OC2COC3(C)OCCC23)cc1 (centres unmarked) [Compound I-715]
- IC50: 5.31 nM

SMILES: COc1ccc(S(=O)(=O)N(CC(C)C)CC(O)C(Cc2ccc(N(C)Cc3cc4c(cc3-c3sc5c(c3C(=O)O)CC(C)(C)CC5)OCC(=O)N4C)cc2)NC(=O)OC2COC3(C)OCCC23)cc1 (centres unmarked) [Compound I-768]
- IC50: 2.95 nM

SMILES: COc1ccc(S(=O)(=O)N(CC(C)C)CC(O)C(Cc2ccc(N(C)Cc3cc(Oc4ccccn4)ccc3-c3sc4c(c3C(=O)O)CC(C)(C)CC4)cc2)NC(=O)OC2COC3(C)OCCC23)cc1 (centres unmarked) [Compound I-686]
- IC50: 3.6 nM

SMILES: COc1ccc(S(=O)(=O)N(CC(C)C)CC(O)C(Cc2ccc(CN3CCc4c(cccc4-c4sc5c(c4C(=O)O)CC(C)(C)CC5)C3)cc2)NC(=O)OC2COC3(C)OCCC23)cc1 (centres unmarked) [Compound I-388]
- IC50: 1.53 nM

SMILES: COc1ccc(S(=O)(=O)N(CC(C)C)CC(O)C(Cc2ccc(NCc3ccncc3-c3sc4c(c3C(=O)O)CC(C)(C)CC4)cc2)NC(=O)OC2COC3(C)OCCC23)cc1 (centres unmarked) [Compound I-273]
- IC50: 2.25 nM

SMILES: COc1ccc(S(=O)(=O)N(CC(C)C)CC(O)C(Cc2ccc(OCc3ccc(-c4sc5c(c4C(=O)O)CC(C)(C)CC5)c(C)c3)cc2)NC(=O)OC2COC3(C)OCCC23)cc1 (centres unmarked) [Compound I-91]
- IC50: 1.35 nM

SMILES: COc1ccc(S(=O)(=O)N(CC(C)C)CC(O)C(Cc2ccc(OCc3ccc(C#N)cc3-c3sc4c(c3C(=O)O)CC(C)(C)CC4)cc2)NC(=O)OC2COC3(C)OCCC23)cc1 (centres unmarked) [Compound I-80]
- IC50: 1.75 nM

SMILES: COc1ccc(S(=O)(=O)N(CC(C)C)C[C@@H](O)[C@H](Cc2ccc(OCc3ccccc3-c3sc4c(c3C(=O)O)CC(C)(C)CC4)cc2)NC(=O)O[C@H]2CCC[C@H]3O[C@@H]4OCC[C@@H]4[C@@H]23)cc1 [Compound I-909]
- IC50: 3.25 nM

SMILES: COc1ccc(S(=O)(=O)N(CC(C)C)CC(O)C(Cc2ccc(OCC3CCN(c4ccc(-c5sc6c(c5C(=O)O)CC(C)(C)CC6)cc4)C3)cc2)NC(=O)OC2COC3(C)OCCC23)cc1 (centres unmarked) [Compound I-894]
- IC50: 20.4 nM

From patent publication US20170253607A1, “LONG-ACTING HIV PROTEASE INHIBITOR” (Shionogi & Co., Ltd., priority 2014, published 2017)
